In patent US20240049720A1, “A SYNERGISTIC AGRICULTURAL COMPOSITION” (priority 2021, published 2024):

Experiments:
[1] = system: Xanthomonas campestris pv. vesicatoria; assay: Foliar application on tomato plants (var. Pony express), control of bacterial disease; format: in vivo; conditions: foliar spray, three applications every 7 days, kasugamycin 2.1 g/kg and/or copper 8 g/kg (17.32 g/kg copper monoglycinate)
Excerpt: Example 3: Foliar Application of Kasugamycin and Copper Glycinate in Tomato Plants (Var. Pony Express) for Controlling Xanthomonas campestris pv. vesicatoria
Tomato plants (var. Pony express) were foliar sprayed with formulations having kasugamycin alone, copper monoglycinate alone, and combination of kasugamycin and copper monoglycinate. The formulation having kasugamycin alone was applied at a dosage of 2.1 g/kg of kasugamycin (2.3 g/kg of kasugamycin hydrochloride hydrate) and the treatment was designated as T1. The formulation having copper monoglycinate was applied at a dosage of 8 g/kg of copper (17.32 g/kg of copper monoglycinate) and the treatment was designated as T2. The formulation having kasugamycin and copper monoglycinate was applied at a dosage of 2.1 g/kg of kasugamycin (2.3 g/kg of kasugamycin hydrochloride hydrate) and 8 g/kg of copper (17.32 g/kg of copper monoglycinate) and the treatment was designated as T3.
Three applications were made every 7 days when the first symptoms of the disease appeared, and the % control of […] was determined. Control percentage of Xanthomonas campestris pv. vesicatoria with the K+CuGly mixture, as well as of kasugamycin and copper glycinate separately are provided in Table 2 below: […]

Erwinia amylovora = assay: Foliar application on apple trees (var. gala), control of Erwinia amylovora; format: in vivo; conditions: apple plants var. Gala; foliar spray, three applications every 7 days; kasugamycin 3.15 g/kg and/or copper 8 g/kg (17.32 g/kg copper monoglycinate)
Excerpt: Example 4: Foliar Application of Kasugamycin and Copper Glycinate in Apple Trees (var. gala) for Controlling Erwinia amylovora
Apple trees (var. gala) were foliar sprayed with formulations having kasugamycin alone, copper glycinate alone, and combination of kasugamycin and copper glycinate. The formulation having Kasugamycin alone was applied at a dosage of 3.15 g/kg of kasugamycin (3.45 g/kg of kasugamycin hydrochloride hydrate). The formulation having copper monoglycinate was applied at a dosage of 8 g/kg of copper (17.32 g/kg of copper monoglycinate). The formulation having kasugamycin and copper monoglycinate was applied at a dosage of 3.15 g/kg of kasugamycin (3.45 g/kg of kasugamycin hydrochloride hydrate) and 8 g/kg of copper (17.32 g/kg of copper monoglycinate).
Three applications were made every 7 days when the first symptoms of the disease appeared, and the % control of Erwinia amylovora was determined. Control percentage of Erwinia amylovora with the K+CuGly mixture, as well as of kasugamycin and copper monoglycinate separately, are provided in Table 3 below: […]

Fusarium spp = assay: In vitro control of Fusarium spp on PDA medium; format: cell-based; conditions: strain isolated from potato, dose 1 L/400 L water, mixture in 1:1 ratio, 28-30° C, dark, evaluated 7 days later
Description: In Vitro Control of Fusarium spp Using Kasugamycin and Copper Glycinate
A strain of Fusarium spp isolated from potato was cultivated was in solid potato dextrose agar medium. The efficacy of the mixture of kasugamycin and copper glycinate in a 1:1 ratio, and each component individually was tested.
(§1) The in vitro assessment of the products effectiveness was carried out as per the treatments discussed in Table 4. Accordingly, the components in each treatment were dissolved in PDA culture medium at the dose indicated above. The mixture was homogenized and poured into sterile petri dishes. Explants of 5 mm diameter of the fungus strain Fusarium spp. were placed on the petri dishes with PDA. The dishes were incubated inverted, in dark conditions at a temperature of 28-30° C. The evaluation of the inhibition of the fungus was carried out 7 days later. Control percentage of Fusarium sp. with the K+CuGly mixture, as well as of kasugamycin and copper monoglycinate separately are provided in Table 5 below: […]

Alternaria alternata = assay: In vitro control of Alternaria alternata on PDA medium; format: cell-based; conditions: dose 1 L/400 L water, mixture in 1:1 ratio, 28-30° C, dark, evaluated 7 days later
Description: In Vitro Control of Alternaria alternata Using Kasugamycin and Copper Glycinate
Alternaria alternata was cultivated was in solid potato dextrose agar medium. The efficacy of the mixture of kasugamycin and copper glycinate in a 1:1 ratio, and each component individually was tested.
as §1, with “6.” for “4.”, “Alternaria alternata” for “Fusarium spp.”, “Alternaria alternata” for “Fusarium sp.”

| Compound | % control of Xanthomonas campestris pv. vesicatoria [1] [%] | % control of Erwinia amylovora (Erwinia amylovora) [%] | % control of Fusarium sp. (Fusarium spp) [%] | % Control of Alternaria alternata (Alternaria alternata) [%] |
| --- | --- | --- | --- | --- |
| Copper monoglycinate [Copper glycinate] | 80.5 | 50 | 39 | 53 |
| C[C@H]1O[C@H](O[C@H]2[C@H](O)[C@@H](O)[C@@H](O)[C@H](O)[C@@H]2O)[C@@H](N)C[C@@H]1NC(=N)C(=O)O [Kasugamycin] | 93.2 | 55.6 | 55 | 79 |
